Assay [1] concerns the target T1, System Xc^− cystine/glutamate antiporter (Homo sapiens, UniProt Q9UPY5).
T1 sequence (Q9UPY5 1-501): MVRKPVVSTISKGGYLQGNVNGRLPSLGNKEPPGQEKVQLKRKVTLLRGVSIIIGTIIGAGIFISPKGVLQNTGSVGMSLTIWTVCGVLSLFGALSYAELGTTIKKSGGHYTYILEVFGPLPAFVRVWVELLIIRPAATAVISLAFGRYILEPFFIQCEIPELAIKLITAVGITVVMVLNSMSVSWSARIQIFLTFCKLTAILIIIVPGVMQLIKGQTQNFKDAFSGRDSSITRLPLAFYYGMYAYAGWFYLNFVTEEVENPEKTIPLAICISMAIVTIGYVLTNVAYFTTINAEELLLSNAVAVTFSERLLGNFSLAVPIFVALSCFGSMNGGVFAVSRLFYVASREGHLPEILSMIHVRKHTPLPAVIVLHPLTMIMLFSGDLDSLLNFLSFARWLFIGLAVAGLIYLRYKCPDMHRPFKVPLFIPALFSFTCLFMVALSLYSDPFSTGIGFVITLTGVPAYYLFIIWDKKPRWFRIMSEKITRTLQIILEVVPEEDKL
T1 sequence (P08195 1-529 partner): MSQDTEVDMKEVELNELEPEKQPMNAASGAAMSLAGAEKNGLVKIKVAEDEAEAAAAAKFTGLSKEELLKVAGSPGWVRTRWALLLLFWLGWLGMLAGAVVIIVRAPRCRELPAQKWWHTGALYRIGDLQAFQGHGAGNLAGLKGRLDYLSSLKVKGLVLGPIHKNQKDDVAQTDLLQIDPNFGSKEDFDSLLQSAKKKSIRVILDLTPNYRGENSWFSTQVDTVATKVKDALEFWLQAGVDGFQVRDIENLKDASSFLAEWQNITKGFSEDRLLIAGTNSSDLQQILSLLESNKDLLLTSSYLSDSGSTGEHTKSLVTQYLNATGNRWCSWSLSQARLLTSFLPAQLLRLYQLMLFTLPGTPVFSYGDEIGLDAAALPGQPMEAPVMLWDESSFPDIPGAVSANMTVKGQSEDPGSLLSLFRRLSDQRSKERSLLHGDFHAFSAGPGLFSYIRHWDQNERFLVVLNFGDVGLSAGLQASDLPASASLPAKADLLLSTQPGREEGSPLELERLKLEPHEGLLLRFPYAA
The experiment in a line: Cystine-induced glutamate release assay. More on the design: endogenous in cells; host or cells: H4 cells. The format is cell-based. The settings on record: H4 cells, 50 μM L-Cystine, 2 hours, sodium-free HEPES buffer; read-out: Cystine-induced glutamate release assay (range of pIC50) (converted). From the text:
(§1) By measuring respectively, the concentration of glutamate released outside the cell and the L-cystine uptaken in the cell, with increasing concentrations of compounds of formula (I) according to the present invention, the efficacy of said compounds to inhibit the System Xc^− function can be evaluated.
(§2) The efficacy of the compounds to inhibit system Xc^− is represented by measuring the IC50 which corresponds to the concentration of compound necessary to inhibit 50% of the signals from the two control groups; DMSO 1% and Erastin 50 μM in the respective assays. pIC50 values correspond to −log of the IC50 in Molar.
Measurement of cystine-induced glutamate release indicates levels of glutamate (outside of the cell) that are dependent on system Xc^− antiporter function. Upon the addition of L-Cystine to H4 cells, intracellular glutamate is counter-transported and exported in the supernatant.
In this assay, the medium is devoid of sodium to prevent the transport of glutamate by sodium-dependent excitatory amino acid transporters (EAATs). H4 cells were plated on 384-well culture plate at 1×10^4 cells/well in Dulbecco's Modified Eagle Medium (DMEM) with L-glutamine, penicillin/streptomycin and 10% fetal bovine serum (all from ThermoFisher Scientific) and incubated in a humidified CO2 incubator at 37° C. After 2 days, cells were washed 4 times with prewarmed sodium-free HEPES buffer (contents in mM: HEPES 10, KCl 5.4, CaCl2 2.5, MgCl2 1, KH2PO4 0.4, D-Glucose 5, Choline chloride 140), pH 7.4. Glutamate release was induced by addition of 50 μM of L-Cystine (Sigma-Aldrich), together with a test compound of Formula (I) at 1% final DMSO concentration. After 2 hours of incubation in the culture incubator, supernatants were transferred to a low-binding polypropylene 384-well plate to determine L-glutamate concentration using Amplex™ Red Glutamic Acid Assay Kit (ThermoFisher Scientific). Briefly, 10 μL of Amplex™ Red working solution was added to 10 μL of the supernatant, then the mixture was incubated for 30 min at 37° C. Fluorescence intensity was measured by EnVision microplate reader (PerkinElmer).

Assay [2] concerns the target T1, System Xc^− cystine/glutamate antiporter. The assay can be described thus: [^14C]L-Cystine uptake assay. The format is cell-based. The settings on record: H4 cells, 15 min preincubation, 1 hour at 37° C., sodium-free HEPES buffer; read-out: [^14C] L-Cystine uptake assay (range of pIC50) (converted).
Description: as §1, §2
In this assay, the medium is devoid of sodium to prevent the transport of glutamate by sodium-dependent excitatory amino acid transporters (EAATs). H4 cells were plated on a 96-well CytoStar-T scintillating microplate (PerkinElmer) at 5×10^4 cells/well in the medium described above. After 1 day, cells were washed one time with the sodium-free HEPES buffer and preincubated with test compounds of Formula (I) (1% final DMSO) for 15 min. Uptake was initiated by adding 0.5 μM L-[1,2, 1′,2′-^14C] Cystine (0.02 mCi/mL, PerkinElmer, Waltham, US) and 4.5 μM L-Cystine (Sigma-Aldrich). After 1 hour at 37° C., plates were counted in a MicroBeta^2 microplate counter (PerkinElmer).

Turning to `CC(=O)c1ccc(NC(=O)CN2C(=O)Cc3ncccc3-c3c2cc(N2CC4(C2)CC4(F)F)nc3Cl)cc1` [#9], the IC50 was 100 to 501 nM in assay [1] and 39.8 to 100 nM in assay [2].

As to `CC(=O)c1ccc(NC(=O)CN2C(=O)Cc3ccccc3-c3c2cc(C)nc3F)cc1` [#10], the IC50 is 100 to 501 nM in assay [1] and 39.8 to 100 nM in assay [2].

For the compound `CCC(=O)c1ccc(NC(=O)CN2C(=O)[C@H](C)c3ncccc3-c3c2cc(C)nc3F)cc1` [#15], the IC50 in assay [1] and in assay [2] was 39.8 to 100 nM each time.

In the case of `CC(=O)c1ccc(NC(=O)CN2C(=O)Cc3ncccc3-c3c2cc(N2CC(F)C2)nc3F)cc1` [#21], the IC50 in assay [1] is 15.8 to 39.8 nM; in assay [2] it was under 15.8 nM.

For the compound `CC(=O)c1ccc(NC(=O)CN2C(=O)Cc3ncccc3-c3c2cc(N2CC(F)(F)C2)nc3F)cc1` [#22], the IC50 is 39.8 to 100 nM in assay [1] and 15.8 to 39.8 nM in assay [2].

For `CC(=O)c1ccc(NC(=O)CN2C(=O)C(C)c3ncccc3-c3c2cc(C)nc3F)cc1F` (stereo not drawn) [#24], the IC50 in assay [1] is 39.8 to 100 nM; in assay [2], 15.8 to 39.8 nM.

Consider `CC(=O)c1ccc(NC(=O)CN2C(=O)C(C)c3ncccc3-c3c2cc(N2CC(C)(O)C2)nc3F)cc1` (stereo not drawn) [#25], for which the IC50 in assay [1] was 39.8 to 100 nM; in assay [2], 15.8 to 39.8 nM.

Take `CC(=O)c1ccc(NC(=O)CN2C(=O)C(C)c3ncccc3-c3c2cc(N2CC(C)(F)C2)nc3F)cc1` (stereo not drawn) [#26]: the IC50 in assay [1] is 100 to 501 nM; in assay [2], 15.8 to 39.8 nM.

On to `CC(=O)c1ccc(NC(=O)CN2C(=O)Cc3ncccc3-c3c2cc(N2CC(C)(O)C2)nc3F)cc1` [#27], for which the IC50 in assay [1] was 39.8 to 100 nM; in assay [2], 15.8 to 39.8 nM.

As to `CC(=O)c1ccc(NC(=O)CN2C(=O)C(C)c3nscc3-c3c2cc(C)nc3F)cc1` (stereo not drawn) [#28], the figures for the IC50 in assay [1] and in assay [2] were 39.8 to 100 nM and 100 to 501 nM, respectively.

Regarding `CC(=O)c1ccc(NC(=O)CN2C(=O)C(C)c3ncccc3-c3c2cc(C2(O)CCC2)nc3F)cc1` (stereo not drawn) [#29], the IC50 in assay [1] and in assay [2] was 39.8 to 100 nM throughout.

As for `CC(=O)c1ccc(NC(=O)CN2C(=O)C(C)c3ncc(F)cc3-c3c2cc(CO)nc3F)cc1` (stereo not drawn) [#30], the IC50 in assay [1] and in assay [2] was 100 to 501 nM throughout.

As for `CC(=O)c1ccc(NC(=O)CN2C(=O)C(C)c3ncccc3-c3c2cc(C2CCC2)nc3F)cc1` (stereo not drawn) [#31], the IC50 in assay [1] and in assay [2] was 15.8 to 39.8 nM throughout.

`CC(=O)c1ccc(NC(=O)CN2C(=O)C(C)c3cnc(F)cc3-c3c2cc(C)nc3F)cc1` (stereo not drawn) [#34]: the IC50 in assay [1] and in assay [2] was 39.8 to 100 nM in each case.

Consider `CC(=O)c1ccc(NC(=O)CN2C(=O)C(C)c3ncccc3-c3c(F)cc(N4CC(F)C4)cc32)cc1` (stereo not drawn) [#35], for which the IC50 in assay [1] was 15.8 to 39.8 nM; in assay [2], under 15.8 nM.

Source of the values: patent US20260226057A1, “TRICYCLIC AZEPINONE DERIVATIVES AS SYSTEM XC INHIBITORS” (UCB BIOPHARMA SRL, priority 2023, published 2026).
